Measured values from patent US6914045B2, “Glycopeptide antibiotics” (Wyeth Holdings Corporation, priority 2001, dated 2005).
In brackets after ≈: the same amount, converted by molar mass.

Columns and labels:
Assay in all cases: in vitro antibacterial evaluation, MIC by broth dilution
Assay type in all cases: cell-based
Enterococcus sp. = settings: broth dilution, 18 hours at 35° C.
Summary of the method: (§1)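 Following National Committee for Clinical Laboratory Standards recommendations (M7-A2), susceptibility was measured by dilution in Muller-Hinton II […]. Bacteria were seeded at 5×10^5 CFU/mL against compound concentrations from 64 down to 0.06 μg/mL.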

Staphylococcus sp. = settings: broth dilution, 18 hours at 35° C.; for MIC Staphylococcus aureus (GC 1131): strain GC 1131
Summary of the method: as §1

Streptococcus sp. = settings: broth dilution, 18 hours at 35° C.
Summary of the method: as §1

Escherichia coli = test system: Escherichia coli
Summary of the method: as §1

**Q.** With `COc1cc(OC)cc(C2OC3C(OC4C(CO)OC(Oc5ccc(CC6NC(=O)C(C(C)c7ccccc7)NC(=O)CNC(=O)C(CO)NC(=O)C(C(O)C7CNC(=N)N7C7OC(CO)C(O)C(O)C7O)NC(=O)C(C(O)C7CNC(=N)N7)NC6=O)cc5)C(O)C4O)OC(CO)C(O)C3O2)c1` (stereo not drawn) [Example 150a] as the compound, how does the “MIC Enterococcus avium (GC 4558)” value (Enterococcus sp.; Enterococcus avium (GC 4558)) read?
**A.** 64 µg/mL (≈ 44.3 µM)

**Q.** And the “MIC Enterococcus faecalis (ATCC 29212)” value (Enterococcus sp.; Enterococcus faecalis (ATCC 29212))?
**A.** >64 µg/mL

**Q.** And the “MIC Enterococcus faecalis (GC 2242)” value (Enterococcus sp.; Enterococcus faecalis (GC 2242))?
**A.** >64 µg/mL

**Q.** And the “MIC Enterococcus faecalis (GC 2691)” value (Enterococcus sp.; Enterococcus faecalis (GC 2691))?
**A.** >64 µg/mL

**Q.** And the “MIC Enterococcus faecalis (GC 3059)” value (Enterococcus sp.; Enterococcus faecalis (GC 3059))?
**A.** >64 µg/mL

**Q.** What about the “MIC Enterococcus faecalis (GC 4552)” value (Enterococcus sp.; Enterococcus faecalis (GC 4552)) of the same compound?
**A.** >64 µg/mL

**Q.** What about the “MIC Enterococcus faecalis (GC 4553)” value (Enterococcus sp.; Enterococcus faecalis (GC 4553)) of the same compound?
**A.** >64 µg/mL

**Q.** And the “MIC Enterococcus faecalis (GC 4554)” value (Enterococcus sp.; Enterococcus faecalis (GC 4554))?
**A.** >64 µg/mL

**Q.** What about the “MIC Enterococcus faecalis (GC 6189)” value (Enterococcus sp.; Enterococcus faecalis (GC 6189)) of the same compound?
**A.** >64 µg/mL

**Q.** And the “MIC Enterococcus faecium (GC 2243)” value (Enterococcus sp.; Enterococcus faecium (GC 2243))?
**A.** >64 µg/mL

**Q.** And the “MIC Enterococcus faecium (GC 4556)” value (Enterococcus sp.; Enterococcus faecium (GC 4556))?
**A.** >64 µg/mL

**Q.** What about the “MIC Enterococcus faecium (GC 4557)” value (Enterococcus sp.; Enterococcus faecium (GC 4557)) of the same compound?
**A.** 16 µg/mL (≈ 11.1 µM)

**Q.** What about the “MIC Enterococcus faecalis (ATCC 29212)” value (Enterococcus sp.; strain ATCC 29212) of the same compound?
**A.** >64 µg/mL

**Q.** And the “MIC Enterococcus faecalis (GC 2242)” value (Enterococcus sp.; strain GC 2242)?
**A.** >64 µg/mL

**Q.** And the “MIC Enterococcus faecium (GC 2243)” value (Enterococcus sp.; strain GC 2243)?
**A.** >64 µg/mL

**Q.** What about the “MIC Enterococcus faecalis (GC 2691)” value (Enterococcus sp.; strain GC 2691) of the same compound?
**A.** >64 µg/mL

**Q.** What about the “MIC Enterococcus faecalis (GC 3059)” value (Enterococcus sp.; strain GC 3059) of the same compound?
**A.** >64 µg/mL

**Q.** And the “MIC Enterococcus faecalis (GC 4552)” value (Enterococcus sp.; strain GC 4552)?
**A.** >64 µg/mL

**Q.** And the “MIC Enterococcus faecalis (GC 4553)” value (Enterococcus sp.; strain GC 4553)?
**A.** >64 µg/mL

**Q.** What about the “MIC Enterococcus faecalis (GC 4554)” value (Enterococcus sp.; strain GC 4554) of the same compound?
**A.** >64 µg/mL

**Q.** And the “MIC Enterococcus faecium (GC 4556)” value (Enterococcus sp.; strain GC 4556)?
**A.** >64 µg/mL

**Q.** And the “MIC Enterococcus faecium (GC 4557)” value (Enterococcus sp.; strain GC 4557)?
**A.** 16 µg/mL (≈ 11.1 µM)

**Q.** And the “MIC Enterococcus avium (GC 4558)” value (Enterococcus sp.; strain GC 4558)?
**A.** 64 µg/mL (≈ 44.3 µM)

**Q.** What about the “MIC Enterococcus faecalis (GC 6189)” value (Enterococcus sp.; strain GC 6189) of the same compound?
**A.** >64 µg/mL

**Q.** And the “MIC Staphylococcus aureus (GC 1131)” value (Staphylococcus sp.; inoculum 5×10^5 CFU/mL)?
**A.** 32 µg/mL (≈ 22.2 µM)

**Q.** And the “MIC Staphylococcus aureus (ATCC 29213)” value (Staphylococcus sp.; strain ATCC 29213)?
**A.** 32 µg/mL (≈ 22.2 µM)

**Q.** What about the “MIC Staphylococcus aureus (GC 1131)” value (Staphylococcus sp.) of the same compound?
**A.** 32 µg/mL (≈ 22.2 µM)

**Q.** And the “MIC Staphylococcus aureus (GC 3051)” value (Staphylococcus sp.; strain GC 3051)?
**A.** 32 µg/mL (≈ 22.2 µM)

**Q.** And the “MIC Staphylococcus aureus (GC 3053)” value (Staphylococcus sp.; strain GC 3053)?
**A.** 32 µg/mL (≈ 22.2 µM)

**Q.** And the “MIC Staphylococcus aureus (GC 4541)” value (Staphylococcus sp.; strain GC 4541)?
**A.** 16 µg/mL (≈ 11.1 µM)

**Q.** What about the “MIC Staphylococcus aureus (GC 4542)” value (Staphylococcus sp.; strain GC 4542) of the same compound?
**A.** 32 µg/mL (≈ 22.2 µM)

**Q.** What about the “MIC Staphylococcus aureus-SMITH (GC 4543)” value (Staphylococcus sp.; strain GC 4543) of the same compound?
**A.** 16 µg/mL (≈ 11.1 µM)

**Q.** And the “MIC Staphylococcus aureus (GC 4544)” value (Staphylococcus sp.; strain GC 4544)?
**A.** 32 µg/mL (≈ 22.2 µM)

**Q.** And the “MIC Staphylococcus aureus (GC 4545)” value (Staphylococcus sp.; strain GC 4545)?
**A.** 16 µg/mL (≈ 11.1 µM)

**Q.** And the “MIC Staphylococcus haemolyticus (GC 4546)” value (Staphylococcus sp.; strain GC 4546)?
**A.** 16 µg/mL (≈ 11.1 µM)

**Q.** And the “MIC Coagulase Negative Staphylococcus (GC 4547)” value (Staphylococcus sp.; strain GC 4547)?
**A.** 16 µg/mL (≈ 11.1 µM)

**Q.** What about the “MIC Coagulase Negative Staphylococcus (GC 4548)” value (Staphylococcus sp.; strain GC 4548) of the same compound?
**A.** 8 µg/mL (≈ 5.54 µM)

**Q.** What about the “MIC Coagulase Negative Staphylococcus (GC 4549)” value (Staphylococcus sp.; strain GC 4549) of the same compound?
**A.** 8 µg/mL (≈ 5.54 µM)

**Q.** And the “MIC Coagulase Negative Staphylococcus (GC 4551)” value (Staphylococcus sp.; strain GC 4551)?
**A.** 32 µg/mL (≈ 22.2 µM)

**Q.** And the “MIC Coagulase Negative Staphylococcus (GC 6257)” value (Staphylococcus sp.; strain GC 6257)?
**A.** 8 µg/mL (≈ 5.54 µM)

**Q.** And the “MIC Staphylococcus aureus-SMITH (GC 4543)” value (Staphylococcus sp.; strain SMITH GC 4543)?
**A.** 16 µg/mL (≈ 11.1 µM)

**Q.** And the “MIC Streptococcus agalactiae (GC 4564)” value (Streptococcus sp.; Streptococcus agalactiae (GC 4564))?
**A.** 32 µg/mL (≈ 22.2 µM)

**Q.** And the “MIC Streptococcus pneumoniae (ATCC 6301)” value (Streptococcus sp.; Streptococcus pneumoniae (ATCC 6301))?
**A.** 8 µg/mL (≈ 5.54 µM)

**Q.** And the “MIC Streptococcus pneumoniae (GC 1894)” value (Streptococcus sp.; Streptococcus pneumoniae (GC 1894))?
**A.** 8 µg/mL (≈ 5.54 µM)

**Q.** And the “MIC Streptococcus pneumoniae (GC 4565)” value (Streptococcus sp.; Streptococcus pneumoniae (GC 4565))?
**A.** 16 µg/mL (≈ 11.1 µM)

**Q.** And the “MIC Streptococcus pyogenes (GC 4563)” value (Streptococcus sp.; Streptococcus pyogenes (GC 4563))?
**A.** 16 µg/mL (≈ 11.1 µM)

**Q.** What about the “MIC Streptococcus pneumoniae (ATCC 6301)” value (Streptococcus sp.; strain ATCC 6301) of the same compound?
**A.** 8 µg/mL (≈ 5.54 µM)

**Q.** And the “MIC Streptococcus pneumoniae (GC 1894)” value (Streptococcus sp.; strain GC 1894)?
**A.** 8 µg/mL (≈ 5.54 µM)

**Q.** And the “MIC Streptococcus pyogenes (GC 4563)” value (Streptococcus sp.; strain GC 4563)?
**A.** 16 µg/mL (≈ 11.1 µM)

**Q.** What about the “MIC Streptococcus agalactiae (GC 4564)” value (Streptococcus sp.; strain GC 4564) of the same compound?
**A.** 32 µg/mL (≈ 22.2 µM)

**Q.** What about the “MIC Streptococcus pneumoniae (GC 4565)” value (Streptococcus sp.; strain GC 4565) of the same compound?
**A.** 16 µg/mL (≈ 11.1 µM)

**Q.** What about the “MIC Escherichia coli (ATCC 25922)” value (Escherichia coli; strain ATCC 25922, 18 hours at 35° C.) of the same compound?
**A.** >64 µg/mL

**Q.** And the “MIC Escherichia coli (GC 4559)” value (Escherichia coli; strain GC 4559, 18 hours at 35° C.)?
**A.** >64 µg/mL

**Q.** What about the “MIC Escherichia coli (GC 4560)” value (Escherichia coli; strain GC 4560, 18 hours at 35° C.) of the same compound?
**A.** 16 µg/mL (≈ 11.1 µM)
